How the values were obtained:
[1] = test system: Epidermal growth factor receptor (Homo sapiens), P00533 [L858R]; assay: Inhibition of EGFR L858R mutant at 10 uM; type: protein assay
[2] = target: Ribosomal protein S6 kinase alpha-1 (Homo sapiens) (UniProt Q15418); assay: Inhibition of RSK1 N-terminal at 10 uM
[3] = target: Dual specificity protein kinase CLK3 (Homo sapiens) (UniProt P49761); assay: Inhibition of CLK3 at 10 uM
[4] = test system: Tyrosine-protein kinase ABL1 (Homo sapiens), P00519 [E255K]; assay: Inhibition of ABL E255K mutant at 10 uM
Tyrosine-protein kinase ABL1 (Homo sapiens), P00519 [E255K], sequence (P00519 whole entry E255K): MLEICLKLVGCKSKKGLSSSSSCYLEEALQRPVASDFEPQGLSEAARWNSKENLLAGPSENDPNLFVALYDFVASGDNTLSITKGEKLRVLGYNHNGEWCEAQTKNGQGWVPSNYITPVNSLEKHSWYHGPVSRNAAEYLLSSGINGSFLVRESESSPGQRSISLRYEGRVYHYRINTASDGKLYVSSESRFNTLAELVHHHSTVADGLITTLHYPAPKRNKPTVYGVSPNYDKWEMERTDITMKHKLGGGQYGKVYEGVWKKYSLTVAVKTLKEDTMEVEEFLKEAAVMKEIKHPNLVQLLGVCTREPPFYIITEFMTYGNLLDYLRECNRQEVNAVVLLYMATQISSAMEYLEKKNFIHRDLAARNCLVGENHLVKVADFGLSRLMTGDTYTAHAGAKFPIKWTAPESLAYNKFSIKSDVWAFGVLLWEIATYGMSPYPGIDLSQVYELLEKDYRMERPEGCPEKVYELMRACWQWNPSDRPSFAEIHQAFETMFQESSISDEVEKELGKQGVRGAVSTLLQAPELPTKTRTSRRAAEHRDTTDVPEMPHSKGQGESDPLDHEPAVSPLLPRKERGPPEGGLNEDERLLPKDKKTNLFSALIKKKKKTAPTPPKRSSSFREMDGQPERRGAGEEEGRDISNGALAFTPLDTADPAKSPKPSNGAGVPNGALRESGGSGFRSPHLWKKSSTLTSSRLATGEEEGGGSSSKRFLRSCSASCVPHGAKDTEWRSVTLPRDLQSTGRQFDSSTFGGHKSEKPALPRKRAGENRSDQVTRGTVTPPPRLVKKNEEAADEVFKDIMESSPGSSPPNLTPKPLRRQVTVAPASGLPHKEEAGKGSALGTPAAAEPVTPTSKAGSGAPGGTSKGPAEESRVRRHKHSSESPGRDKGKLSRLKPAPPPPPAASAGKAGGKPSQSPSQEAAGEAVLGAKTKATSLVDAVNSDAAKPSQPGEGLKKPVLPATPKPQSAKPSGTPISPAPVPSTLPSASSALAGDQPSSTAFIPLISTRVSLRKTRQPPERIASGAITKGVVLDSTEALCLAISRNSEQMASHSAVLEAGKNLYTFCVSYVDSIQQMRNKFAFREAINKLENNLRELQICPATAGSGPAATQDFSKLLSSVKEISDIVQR

[5] = target: Dual specificity tyrosine-phosphorylation-regulated kinase 1A (Homo sapiens) (UniProt Q13627); conditions: 10 uM
[6] = target: Serine/threonine-protein kinase 38 (Homo sapiens) (UniProt Q15208); assay: Inhibition of NDR1 at 10 uM
[7] = target: Fibroblast growth factor receptor 4 (Homo sapiens) (UniProt P22455); assay: Inhibition of FGFR4 at 10 uM
[8] = target: Protein kinase C beta type (Homo sapiens) (UniProt P05771); assay: Inhibition of PKCbeta1 at 10 uM
[9] = target: cAMP-dependent protein kinase catalytic subunit PRKX (Homo sapiens) (UniProt P51817); assay: Inhibition of PRKX at 10 uM
[10] = target: Serine/threonine-protein kinase PAK 5 (Homo sapiens) (UniProt Q9P286); assay: Inhibition of PAK5 (PAK7) at 10 uM
Serine/threonine-protein kinase PAK 5 (Homo sapiens), sequence (Q9P286 whole entry, looked up): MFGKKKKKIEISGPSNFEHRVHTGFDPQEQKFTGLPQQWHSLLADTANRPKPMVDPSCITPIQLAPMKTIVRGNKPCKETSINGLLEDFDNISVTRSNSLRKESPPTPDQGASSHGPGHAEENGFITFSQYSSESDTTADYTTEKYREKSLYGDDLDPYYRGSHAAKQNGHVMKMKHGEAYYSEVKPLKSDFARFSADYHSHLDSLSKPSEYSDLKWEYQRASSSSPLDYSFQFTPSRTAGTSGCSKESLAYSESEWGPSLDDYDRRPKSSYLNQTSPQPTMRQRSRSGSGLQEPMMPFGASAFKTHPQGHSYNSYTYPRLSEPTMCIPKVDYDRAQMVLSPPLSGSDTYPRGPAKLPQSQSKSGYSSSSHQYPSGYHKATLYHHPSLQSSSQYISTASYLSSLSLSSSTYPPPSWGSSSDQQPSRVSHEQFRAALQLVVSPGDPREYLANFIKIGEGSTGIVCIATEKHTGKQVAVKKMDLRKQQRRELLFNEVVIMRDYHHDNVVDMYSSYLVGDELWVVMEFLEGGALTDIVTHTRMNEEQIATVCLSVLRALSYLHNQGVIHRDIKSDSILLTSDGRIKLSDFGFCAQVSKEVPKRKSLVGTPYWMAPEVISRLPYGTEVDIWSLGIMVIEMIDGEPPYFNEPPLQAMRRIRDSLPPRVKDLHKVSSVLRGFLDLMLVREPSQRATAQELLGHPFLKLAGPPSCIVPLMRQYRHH

[11] = target: T1, Serine/threonine-protein kinase haspin (Homo sapiens, UniProt Q8TF76)
T1 sequence (Q8TF76 whole entry): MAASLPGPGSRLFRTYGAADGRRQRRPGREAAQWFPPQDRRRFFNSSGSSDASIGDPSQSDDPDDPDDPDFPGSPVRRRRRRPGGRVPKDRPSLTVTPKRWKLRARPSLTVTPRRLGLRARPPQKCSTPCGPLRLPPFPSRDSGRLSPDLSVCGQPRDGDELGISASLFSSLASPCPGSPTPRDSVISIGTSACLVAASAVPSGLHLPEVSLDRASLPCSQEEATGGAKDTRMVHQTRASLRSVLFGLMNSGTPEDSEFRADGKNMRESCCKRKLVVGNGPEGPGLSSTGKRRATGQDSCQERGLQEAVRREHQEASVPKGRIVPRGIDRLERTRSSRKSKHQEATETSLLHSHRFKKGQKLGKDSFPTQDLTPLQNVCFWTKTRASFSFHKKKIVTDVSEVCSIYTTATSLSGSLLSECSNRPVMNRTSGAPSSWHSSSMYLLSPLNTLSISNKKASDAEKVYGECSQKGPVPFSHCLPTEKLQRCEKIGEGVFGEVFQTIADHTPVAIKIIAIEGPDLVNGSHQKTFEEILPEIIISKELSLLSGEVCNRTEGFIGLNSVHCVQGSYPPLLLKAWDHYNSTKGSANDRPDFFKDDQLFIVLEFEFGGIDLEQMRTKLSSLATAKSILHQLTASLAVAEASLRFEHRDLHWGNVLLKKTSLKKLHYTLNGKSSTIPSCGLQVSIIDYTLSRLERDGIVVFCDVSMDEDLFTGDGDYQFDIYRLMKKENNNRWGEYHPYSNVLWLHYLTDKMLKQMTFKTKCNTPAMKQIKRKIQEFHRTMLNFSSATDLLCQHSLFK

[12] = target: Phosphorylase b kinase gamma catalytic chain, liver/testis isoform (Homo sapiens) (UniProt P15735); assay: Inhibition of PHKG2 at 10 uM
Phosphorylase b kinase gamma catalytic chain, liver/testis isoform (Homo sapiens), sequence (P15735 whole entry, canonical isoform): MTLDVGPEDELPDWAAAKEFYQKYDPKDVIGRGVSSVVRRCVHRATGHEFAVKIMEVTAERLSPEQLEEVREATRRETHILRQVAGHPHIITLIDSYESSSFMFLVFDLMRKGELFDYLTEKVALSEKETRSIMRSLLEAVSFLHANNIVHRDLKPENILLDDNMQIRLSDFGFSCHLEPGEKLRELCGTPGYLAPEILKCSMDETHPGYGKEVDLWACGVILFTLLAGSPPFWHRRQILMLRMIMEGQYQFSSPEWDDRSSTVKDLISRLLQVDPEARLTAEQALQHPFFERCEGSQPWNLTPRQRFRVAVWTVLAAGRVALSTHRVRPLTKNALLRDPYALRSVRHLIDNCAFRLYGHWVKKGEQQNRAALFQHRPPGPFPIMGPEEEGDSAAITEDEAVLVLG

[13] = target: Mitogen-activated protein kinase kinase kinase 2 (Homo sapiens) (UniProt Q9Y2U5); assay: Inhibition of MAP3K2 at 10 uM
Mitogen-activated protein kinase kinase kinase 2 (Homo sapiens), sequence (Q9Y2U5 whole entry): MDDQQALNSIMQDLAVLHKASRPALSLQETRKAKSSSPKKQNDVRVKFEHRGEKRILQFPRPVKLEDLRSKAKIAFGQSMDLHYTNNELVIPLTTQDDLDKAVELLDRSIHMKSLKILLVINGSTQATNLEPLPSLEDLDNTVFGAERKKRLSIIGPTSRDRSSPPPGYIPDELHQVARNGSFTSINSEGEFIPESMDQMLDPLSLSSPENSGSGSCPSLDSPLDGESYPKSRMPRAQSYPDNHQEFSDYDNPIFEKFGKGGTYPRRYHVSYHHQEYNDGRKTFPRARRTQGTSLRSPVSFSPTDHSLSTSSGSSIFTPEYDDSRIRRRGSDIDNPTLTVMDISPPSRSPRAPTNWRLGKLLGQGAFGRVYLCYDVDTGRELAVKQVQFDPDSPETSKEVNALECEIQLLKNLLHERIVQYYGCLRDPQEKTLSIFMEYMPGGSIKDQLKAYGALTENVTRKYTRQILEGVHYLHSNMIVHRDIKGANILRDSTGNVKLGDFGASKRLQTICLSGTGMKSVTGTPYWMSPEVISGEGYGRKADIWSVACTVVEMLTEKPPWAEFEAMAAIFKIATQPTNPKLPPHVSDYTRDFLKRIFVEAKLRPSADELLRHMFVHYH

[14] = target: Focal adhesion kinase 1 (Homo sapiens) (UniProt Q05397); assay: Inhibition of FAK at 10 uM
[15] = target: Discoidin domain-containing receptor 2 (Homo sapiens) (UniProt Q16832); assay: Inhibition of DDR2 at 10 uM
[16] = target: Casein kinase I isoform gamma-1 (Homo sapiens) (UniProt Q9HCP0); assay: Inhibition of CK1g1 at 10 uM
[17] = target: NUAK family SNF1-like kinase 2 (Homo sapiens) (UniProt Q9H093); assay: Inhibition of NuaK2 at 10 uM
[18] = target: Casein kinase I isoform delta (Homo sapiens) (UniProt P48730); assay: Inhibition of CK1d at 10 uM
[19] = target: Ribosomal protein S6 kinase alpha-6 (Homo sapiens) (UniProt Q9UK32); assay: Inhibition of RSK4 N-terminal at 10 uM
[20] = target: Mitogen-activated protein kinase kinase kinase kinase 4 (Homo sapiens) (UniProt O95819); assay: Inhibition of HGK at 10 uM
Mitogen-activated protein kinase kinase kinase kinase 4 (Homo sapiens), sequence (O95819 2-1239 limits assumed): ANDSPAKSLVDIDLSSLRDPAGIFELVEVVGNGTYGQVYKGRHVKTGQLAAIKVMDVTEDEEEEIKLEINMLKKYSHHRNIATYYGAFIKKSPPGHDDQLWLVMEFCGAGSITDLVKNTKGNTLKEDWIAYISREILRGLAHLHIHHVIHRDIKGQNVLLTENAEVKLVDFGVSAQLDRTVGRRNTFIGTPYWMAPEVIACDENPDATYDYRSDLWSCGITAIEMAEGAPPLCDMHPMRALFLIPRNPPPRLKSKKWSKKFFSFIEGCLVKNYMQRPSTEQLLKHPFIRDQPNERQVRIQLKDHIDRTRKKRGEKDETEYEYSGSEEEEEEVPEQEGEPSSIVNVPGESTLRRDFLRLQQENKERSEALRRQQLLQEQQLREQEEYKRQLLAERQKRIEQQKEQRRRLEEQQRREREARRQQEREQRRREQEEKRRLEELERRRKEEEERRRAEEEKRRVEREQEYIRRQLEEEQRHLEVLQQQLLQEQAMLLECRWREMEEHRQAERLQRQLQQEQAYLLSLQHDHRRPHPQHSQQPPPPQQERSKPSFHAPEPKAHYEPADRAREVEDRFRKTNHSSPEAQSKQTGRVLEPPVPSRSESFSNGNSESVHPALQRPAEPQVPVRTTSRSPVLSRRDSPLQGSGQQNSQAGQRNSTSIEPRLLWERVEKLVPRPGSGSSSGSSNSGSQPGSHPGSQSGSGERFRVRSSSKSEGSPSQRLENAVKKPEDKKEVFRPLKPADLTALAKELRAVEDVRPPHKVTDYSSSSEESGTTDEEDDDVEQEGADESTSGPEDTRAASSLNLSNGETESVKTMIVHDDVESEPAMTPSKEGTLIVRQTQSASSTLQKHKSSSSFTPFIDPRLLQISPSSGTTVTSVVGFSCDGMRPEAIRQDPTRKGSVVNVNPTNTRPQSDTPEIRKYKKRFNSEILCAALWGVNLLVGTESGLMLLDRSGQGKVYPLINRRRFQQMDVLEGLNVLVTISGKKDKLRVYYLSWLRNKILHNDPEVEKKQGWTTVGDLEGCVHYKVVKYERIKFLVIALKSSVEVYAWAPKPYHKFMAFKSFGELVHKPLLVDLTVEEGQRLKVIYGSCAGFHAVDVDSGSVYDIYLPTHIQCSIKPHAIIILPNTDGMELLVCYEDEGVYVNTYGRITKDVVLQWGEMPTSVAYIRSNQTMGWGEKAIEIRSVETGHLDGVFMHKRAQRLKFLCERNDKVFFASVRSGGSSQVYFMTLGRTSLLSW

[21] = target: CDK3/cyclin E (Homo sapiens) (UniProt P24864+O96020+Q00526); assay: Inhibition of CDK3-Cyclin E1 at 10 uM; type: protein-complex assay
[22] = target: Dual specificity mitogen-activated protein kinase kinase 2 (Homo sapiens) (UniProt P36507); assay: Inhibition of MAP2K2 at 10 uM
[23] = target: Tyrosine-protein kinase receptor UFO (Homo sapiens) (UniProt P30530); assay: Inhibition of AXL at 10 uM
[24] = target: Vascular endothelial growth factor receptor 3 (Homo sapiens) (UniProt P35916); assay: Inhibition of FLT4 at 10 uM
[25] = target: Serine/threonine-protein kinase 24 (Homo sapiens) (UniProt Q9Y6E0); assay: Inhibition of MST3 at 10 uM
[26] = target: LIM domain kinase 1 (Homo sapiens) (UniProt P53667); assay: Inhibition of LIMK1 at 10 uM
[27] = target: Calcium/calmodulin-dependent protein kinase type II subunit beta (Homo sapiens) (UniProt Q13554); assay: Inhibition of CaMK2b at 10 uM
Calcium/calmodulin-dependent protein kinase type II subunit beta (Homo sapiens), sequence (Q13554 whole entry): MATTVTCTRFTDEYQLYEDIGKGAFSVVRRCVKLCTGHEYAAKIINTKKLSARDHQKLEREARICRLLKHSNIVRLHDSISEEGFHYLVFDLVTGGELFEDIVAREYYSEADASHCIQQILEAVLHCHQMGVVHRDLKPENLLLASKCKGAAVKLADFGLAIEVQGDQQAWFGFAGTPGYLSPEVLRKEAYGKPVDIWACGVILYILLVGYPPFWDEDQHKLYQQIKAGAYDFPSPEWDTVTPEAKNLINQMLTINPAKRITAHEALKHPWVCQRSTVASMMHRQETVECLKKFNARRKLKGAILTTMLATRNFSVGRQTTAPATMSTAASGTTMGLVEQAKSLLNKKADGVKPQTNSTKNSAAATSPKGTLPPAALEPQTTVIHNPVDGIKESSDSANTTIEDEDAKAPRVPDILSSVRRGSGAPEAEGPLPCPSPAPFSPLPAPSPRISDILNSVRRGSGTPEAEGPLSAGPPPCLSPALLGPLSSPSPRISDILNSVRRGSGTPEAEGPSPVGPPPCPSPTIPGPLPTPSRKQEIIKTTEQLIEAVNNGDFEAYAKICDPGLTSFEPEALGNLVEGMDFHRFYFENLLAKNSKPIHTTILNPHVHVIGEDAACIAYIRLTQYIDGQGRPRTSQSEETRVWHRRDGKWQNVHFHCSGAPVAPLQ

[28] = target: Mitogen-activated protein kinase 14 (Homo sapiens) (UniProt Q16539); assay: Inhibition of p38alpha at 10 uM
[29] = target: Tyrosine-protein kinase Yes (Homo sapiens) (UniProt P07947); assay: Inhibition of YES at 10 uM
[30] = target: Eukaryotic elongation factor 2 kinase (Homo sapiens) (UniProt O00418); assay: Inhibition of EEF2K at 10 uM
[31] = target: MAP kinase-activated protein kinase 2 (Homo sapiens) (UniProt P49137); assay: Inhibition of MAPKAPK2 at 10 uM
[32] = target: Protein-tyrosine kinase 2-beta (Homo sapiens) (UniProt Q14289); assay: Inhibition of PYK2 at 10 uM
[33] = target: Serine/threonine-protein kinase PAK 2 (Homo sapiens) (UniProt Q13177); assay: Inhibition of PAK2 at 10 uM
[34] = target: Hepatocyte growth factor receptor (Homo sapiens) (UniProt P08581); assay: Inhibition of MET at 10 uM
[35] = target: Serine/threonine-protein kinase Nek1 (Homo sapiens) (UniProt Q96PY6); assay: Inhibition of NEK1 at 10 uM
[36] = target: Ephrin type-A receptor 3 (Homo sapiens) (UniProt P29320); assay: Inhibition of EPHA3 at 10 uM

`COc1ccc2c3ccnc(C(F)(F)F)c3n(CCCCN)c2c1` showed an inhibition [1] of 10%, an inhibition [2] of 27% and an inhibition [3] of 37%. For the same compound, the inhibition [4] was 0%, the inhibition [5] was 100% and the inhibition [6] was 4%. It also gave an inhibition [7] of 6%, an inhibition [8] of 35% and an inhibition [9] of 14%. The inhibition [10] was 6%, the IC50 [11] was 100 nM and the inhibition [12] was 26%. It also gave an inhibition [13] of 13%, an inhibition [14] of 0% and an inhibition [15] of 7%. It also gave an inhibition [16] of 66%, an inhibition [17] of 27% and an inhibition [18] of 93%. The inhibition [19] was 23%, the inhibition [20] was 62% and the inhibition [21] was 22%. For the same compound, the inhibition [22] was 6%, the inhibition [23] was 34% and the inhibition [24] was 9%. It also gave an inhibition [25] of 9%, an inhibition [26] of 8% and an inhibition [27] of 91%. For the same compound, the inhibition [28] was 1%, the inhibition [29] was 6% and the inhibition [30] was 0%. The inhibition [31] was 7%, the inhibition [32] was 0% and the inhibition [33] was 13%. The inhibition [34] was 4%, the inhibition [35] was 5% and the inhibition [36] was 0%.

Reference: ChEMBL document CHEMBL2010722, “Structure-activity relationship study of beta-carboline derivatives as haspin kinase inhibitors” (Bioorg Med Chem Lett, 2012)
